Test results: US8349827B2, “Substituted dipyrido-pyrimido-diazepine and benzo-pyrido-pyrimido compounds” (ArQule, Inc., priority 2009, dated 2013)
Where a name gives a salt, the structure may show the parent alone.

Legend:
[1] = tested on: PACA-2; experiment: MTS assay, PACA-2 cells; format: cell-based; conditions: 72 hours
Summary of the method: (§1)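 First, seed 3000 cells per well in low-serum (1% FBS) DMEM and culture 18 h. Next, add compounds prepared at 300× in DMSO and diluted 1:40 in DMEM; incubate 72 h. Finally, add MTS/PMS for 4 h and measure absorbance at 492 nm.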

[2] = tested on: MDA-MB-231; experiment: MTS assay, MDA-MB-231 cells; format: cell-based; conditions: Homo sapiens, 72 hours
Summary of the method: as §1

[3] = tested on: KATO III; experiment: MTS assay, KATO III cells; format: cell-based; conditions: Homo sapiens, 72 hours
Summary of the method: as §1

[4] = tested on: DLD-1; experiment: MTS assay, DLD-1 cells; format: cell-based; conditions: Homo sapiens, 72 hours
Summary of the method: as §1

[5] = molecular target: ABL (Homo sapiens, UniProt P00519); experiment: ABL Kinase Activity Assay (Elisa), ABL; format: biochemical; conditions: ATP 100 μM, read-out: Abl Enzymetic assay (Elisa) % inhibition
Summary of the method: (§2)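 Recombinant ABL or ABL T315I (0.089 nM final) preincubated 20 min with compound, then reacted 1 h at room temperature with 100 μM ATP and 128 nM biotinylated AblTide in Tris pH 7.0/MgCl2 buffer. Phosphopeptide captured on streptavidin and detected by anti-phosphotyrosine ELISA with alkaline phosphatase secondary and Attophos fluorescence.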

[6] = molecular target: ABL T315I (Homo sapiens, UniProt P00519, T315I); experiment: ABL Kinase Activity Assay (Elisa), ABL T315I; format: biochemical; conditions: ATP 100 μM, read-out: Abl(T315I) Enzymetic assay (Elisa) % inhibition
Summary of the method: as §2

[7] = tested on: NCI-H1299; experiment: MTS assay, NCI-H1299 cells; format: cell-based; conditions: Homo sapiens, 72 hours
Summary of the method: as §1

[8] = tested on: PC-3; experiment: MTS assay, PC-3 cells; format: cell-based; conditions: Homo sapiens, 72 hours
Summary of the method: as §1

| SMILES | melting point [°C] | inhibition at 10 µM [5] [%] | inhibition at 10 µM [6] [%] | inhibition at 10 µM [1] [%] | inhibition at 10 µM [2] [%] | inhibition at 10 µM [3] [%] | inhibition at 10 µM [4] [%] | inhibition at 10 µM [7] [%] | inhibition at 10 µM [8] [%] |
| --- | --- | --- | --- | --- | --- | --- | --- | --- | --- |
| CN(C)CCCCCNc1ncc2c(n1)-c1cccnc1Nc1cnccc1-2 (as salt: TFA) [Example 48, N′-9H-dipyrido[2,3-b:4′,3′-f]pyrimido[4,5-d]azepin-2-yl-N,N-dimethylpentane-1,5-diamine] | 133 to 136 |  |  |  |  |  |  |  |  |
| CN(C)CCCCNc1ncc2c(n1)-c1cccnc1Nc1cnccc1-2 (as salt: TFA) [Example 51, N′-9H-dipyrido[2,3-b:4′,3′-f]pyrimido[4,5-d]azepin-2-yl-N,N-dimethylbutane-1,4-diamine] | 154 to 156 |  |  |  |  |  |  |  |  |
| c1cnc2c(c1)-c1nc(NC3CCNCC3)ncc1-c1ccncc1N2 (as salt: TFA) [Example 59, N-piperidin-4-yl-9H-dipyrido[2,3-b:4′,3′-f]pyrimido[4,5-d]azepin-2-amine] | 189 to 191 |  |  |  |  |  |  |  |  |
| c1cnc2c(c1)-c1nc(NCC3CCNCC3)ncc1-c1ccncc1N2 (as salt: TFA) [Example 60, N-(piperidin-4-ylmethyl)-9H-dipyrido[2,3-b:4′,3′-f]pyrimido[4,5-d]azepin-2-amine] | 151 to 153 |  |  |  |  |  |  |  |  |
| CN(C)CCCCNc1ncc2c(n1)-c1cccnc1Nc1cnccc1-2 [Example 51, N′-9H-dipyrido[2,3-b:4′,3′-f]pyrimido[4,5-d]azepin-2-yl-N,N-dimethylbutane-1,4-diamine] |  | 50 to 79 | < 50 | < 50 | 80 to 100 | 80 to 100 | < 50 | < 50 | 80 to 100 |
| c1cnc2c(c1)-c1nc(NCC3CCNCC3)ncc1-c1ccncc1N2 [Example 60, N-(piperidin-4-ylmethyl)-9H-dipyrido[2,3-b:4′,3′-f]pyrimido[4,5-d]azepin-2-amine] |  | 50 to 79 | < 50 | 80 to 100 | 80 to 100 | 80 to 100 | 50 to 79 | 50 to 79 | 80 to 100 |
| OCCc1ccc(Nc2ncc3c(n2)-c2cccnc2Nc2ccccc2-3)cc1 [Example 63, 2-[4-(9H-pyrido[2,3-b]pyrimido[4,5-d][1]benzazepin-2-ylamino)phenyl]ethanol] |  | < 50 | < 50 | 80 to 100 | < 50 | 50 to 79 | 50 to 79 | < 50 | 50 to 79 |
| Cc1cccc2c(CCNc3ncc4c(n3)-c3cccnc3Nc3ccccc3-4)c[nH]c12 [Example 65, N-[2-(7-methyl-1H-indol-3-yl)ethyl]-9H-pyrido[2,3-b]pyrimido[4,5-d][1]benzazepin-2-amine] | 188 to 190 |  |  | 80 to 100 | 50 to 79 | 80 to 100 | 80 to 100 | 80 to 100 | 80 to 100 |
| c1ccc2c(c1)Nc1ncccc1-c1nc(NCc3ccnc4[nH]ccc34)ncc1-2 [Example 66, N-(1H-pyrrolo[2,3-b]pyridin-4-ylmethyl)-9H-pyrido[2,3-b]pyrimido[4,5-d][1]benzazepin-2-amine] | 285 to 288 |  |  | 80 to 100 | 50 to 79 | 80 to 100 | 50 to 79 | 50 to 79 | 50 to 79 |

Continued, in another order:

| melting point [°C] | inhibition at 10 µM [5] [%] | inhibition at 10 µM [6] [%] | SMILES | inhibition at 10 µM [1] [%] | inhibition at 10 µM [2] [%] | inhibition at 10 µM [3] [%] | inhibition at 10 µM [4] [%] | inhibition at 10 µM [7] [%] | inhibition at 10 µM [8] [%] |
| --- | --- | --- | --- | --- | --- | --- | --- | --- | --- |
| 253 to 255 |  |  | c1ccc(CNc2ncc3c(n2)-c2cccnc2Nc2cnccc2-3)nc1 (as salt: TFA) [Example 49, N-(pyridin-2-ylmethyl)-9H-dipyrido[2,3-b:4′,3′-f]pyrimido[4,5-d]azepin-2-amine] |  |  |  |  |  |  |
| > 253 |  |  | CN(C)CCCNc1ncc2c(n1)-c1cccnc1Nc1cnccc1-2 (as salt: TFA) [Example 50, N′-9H-dipyrido[2,3-b:4′,3′-f]pyrimido[4,5-d]azepin-2-yl-N,N-dimethylpropane-1,3-diamine] |  |  |  |  |  |  |
| 195 to 196 | 80 to 100 | 80 to 100 | Clc1cccc(CNc2ncc3c(n2)-c2cccnc2Nc2cnccc2-3)c1 [Example 1, N-(3-chlorobenzyl)-9H-dipyrido[2,3-b:4′,3′-f]pyrimido[4,5-d]azepin-2-amine] | < 50 | < 50 | 80 to 100 | 50 to 79 | 50 to 79 |  |
| 264 to 266 | 80 to 100 | 80 to 100 | Fc1ccc(CNc2ncc3c(n2)-c2cccnc2Nc2cnccc2-3)c(F)c1 [Example 2, N-(2,4-difluorobenzyl)-9H-dipyrido[2,3-b:4′,3′-f]pyrimido[4,5-d]azepin-2-amine] | < 50 | < 50 | 50 to 79 | < 50 | 50 to 79 |  |
|  | 80 to 100 | 80 to 100 | Fc1cccc(CNc2ncc3c(n2)-c2cccnc2Nc2cnccc2-3)c1 [Example 39, N-(3-fluorobenzyl)-9H-dipyrido[2,3-b:4′,3′-f]pyrimido[4,5-d]azepin-2-amine] | 80 to 100 | 80 to 100 | 80 to 100 | 80 to 100 | 80 to 100 | 80 to 100 |
|  | 80 to 100 | 80 to 100 | Cc1cccc(CNc2ncc3c(n2)-c2cccnc2Nc2cnccc2-3)c1 [Example 40, N-(3-methylbenzyl)-9H-dipyrido[2,3-b:4′,3′-f]pyrimido[4,5-d]azepin-2-amine] | 80 to 100 | 50 to 79 | 50 to 79 | 50 to 79 | 50 to 79 | 80 to 100 |
|  | 80 to 100 | 80 to 100 | COc1ccc(CCNc2ncc3c(n2)-c2cccnc2Nc2cnccc2-3)cc1 [Example 42, N-[2-(4-methoxyphenyl)ethyl]-9H-dipyrido[2,3-b:4′,3′-f]pyrimido[4,5-d]azepin-2-amine] | < 50 | < 50 | 80 to 100 | 50 to 79 | < 50 | < 50 |
| 153 to 155 | 80 to 100 | 80 to 100 | Cc1cccc2c(CCNc3ncc4c(n3)-c3cccnc3Nc3cnccc3-4)c[nH]c12 [Example 52, N-[2-(7-methyl-1H-indol-3-yl)ethyl]-9H-dipyrido[2,3-b:4′,3′-f]pyrimido[4,5-d]azepin-2-amine] | < 50 | < 50 | 80 to 100 | 50 to 79 | 50 to 79 | < 50 |
| > 300 |  |  | Nc1ccc(-c2ncc3c(n2)-c2cccnc2Nc2cnccc2-3)cc1 [Example 53, 4-(9H-dipyrido[2,3-b:4′,3′-f]pyrimido[4,5-d]azepin-2-yl)aniline] | < 50 | < 50 | < 50 | < 50 | < 50 | < 50 |
| > 300 |  |  | c1ccc(-c2ncc3c(n2)-c2cccnc2Nc2cnccc2-3)cc1 [Example 54, 2-phenyl-9H-dipyrido[2,3-b:4′,3′-f]pyrimido[4,5-d]azepine] |  | < 50 | < 50 | < 50 | < 50 | < 50 |
| 208 to 211 |  |  | c1cnc2c(c1)-c1nc(NCc3ccnc4[nH]ccc34)ncc1-c1ccncc1N2 [Example 55, N-(1H-pyrrolo[2,3-b]pyridin-4-ylmethyl)-9H-dipyrido[2,3-b:4′,3′-f]pyrimido[4,5-d]azepin-2-amine] | 80 to 100 | < 50 | 80 to 100 | 80 to 100 | 50 to 79 | 80 to 100 |
| 208 to 211 |  |  | OCCc1cccc(Nc2ncc3c(n2)-c2cccnc2Nc2cnccc2-3)c1 [Example 56, 2-[3-(9H-dipyrido[2,3-b:4′,3′-f]pyrimido[4,5-d]azepin-2-ylamino)phenyl]ethanol] | 80 to 100 | < 50 | 80 to 100 | 50 to 79 | 50 to 79 | < 50 |
